Legend:
[1] = system: FLT3, KIT, MET, RET, VEGFR2; conditions: one bound for FLT3, KIT; cited from earlier work
[2] = system: DMM-induced OA; test: Systemic imatinib in DMM model of OA (Example 5); assay type: in vivo, mice; conditions: 33 mg/kg/day or 100 mg/kg, orally twice-daily for 12 weeks starting one day after DMM surgery
[3] = system: ABL, KIT, PDGFRs, DDRs; conditions: read-out: IC50 (nM/L), one bound for ABL; cited from earlier work
[4] = system: allergic rhinorrhea; conditions: intranasal dosing; cited from earlier work
[5] = system: allergic rhinitis; conditions: phase II clinical trial for allergic rhinitis; cited from earlier work
[6] = system: tie2, pdgfrs, ret, kit, B-RAF; conditions: one bound for tie2, pdgfrs; cited from earlier work
[7] = system: VEGFRs, PDGFRs, B-RAF, MEK, ERK, c-FMS; conditions: one bound for VEGFRs; cited from earlier work

Q: With `COc1cc2nccc(Oc3ccc(NC(=O)C4(C(=O)Nc5ccc(F)cc5)CC4)cc3)c2cc1OC` [Cabozatinib] as the molecule, how does the IC50 [1] read?
A: Its IC50 is less than 15 nM.

Q: Which “development of DMM-induced OA (histological scores of cartilage damage, synovitis and osteophyte formation)” value [2] does the source give for `Cc1ccc(NC(=O)c2ccc(CN3CCN(C)CC3)cc2)cc1Nc1nccc(-c2cccnc2)n1` [Imatinib] here?
A: The value was “prevented the development of DMM-induced OA”.

Q: With `Oc1cccc(Nc2ncc(F)c(Nc3cccc(O)c3)n2)c1` [R112] as the molecule, how does the allergic rhinorrhea [4] read?
A: Its allergic rhinorrhea is “effectively improved allergic rhinorrhea”.

Q: And the safety [4]?
A: Its safety is “safe”.

Q: What about the efficacy versus placebo [5] of the same molecule?
A: Its efficacy versus placebo is “lack of efficacy versus placebo”.

Q: With `CNC(=O)c1cc(Oc2ccc(NC(=O)Nc3ccc(Cl)c(C(F)(F)F)c3)cc2)ccn1` [Sorafenib] as the molecule, how does the IC50 [7] read?
A: The IC50 was less than 100 nM.

Reference: patent US20170312282A1, “TYROSINE KINASE INHIBITOR FORMULATIONS FOR THE TREATMENT OF MAST CELL-MEDIATED INFLAMMATORY DISEASES AND METHODS OF USE THEREOF” (The Board of Trustees of the Leland Stanford Junior …, priority 2016, published 2017)
